Reference: paper PMC13266984 (Journal of medicinal chemistry, 2026)
Where “and” joins values, the source holds several entries; their conditions need not be identical. Identical values can stand only once.

Columns and labels:
OE19 (3A1) = target: T1, OE19 (3A1) (Homo sapiens, UniProt P30838); assay: Cellular ALDEFLUOR assay in OE19 cells (preferential ALDH3A1 expression)
T1 sequence (P30838 1-453): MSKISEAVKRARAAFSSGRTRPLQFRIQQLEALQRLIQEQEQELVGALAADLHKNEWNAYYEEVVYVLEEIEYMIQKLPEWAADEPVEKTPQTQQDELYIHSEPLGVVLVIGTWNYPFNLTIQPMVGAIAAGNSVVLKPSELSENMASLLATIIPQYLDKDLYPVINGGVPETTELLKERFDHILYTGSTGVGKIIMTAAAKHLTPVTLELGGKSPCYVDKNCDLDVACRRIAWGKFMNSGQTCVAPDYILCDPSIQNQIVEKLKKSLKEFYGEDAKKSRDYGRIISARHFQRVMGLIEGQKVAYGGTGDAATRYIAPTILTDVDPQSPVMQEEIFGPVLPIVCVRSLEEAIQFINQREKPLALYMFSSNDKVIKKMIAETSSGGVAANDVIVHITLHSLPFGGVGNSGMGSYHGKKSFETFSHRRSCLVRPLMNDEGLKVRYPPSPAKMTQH

Human ALDH3A1 = target: T2, Human ALDH3A1 (Homo sapiens, UniProt P30838); assay: ALDH3A1 biochemical assay (benzaldehyde/NADP+, diaphorase-resazurin readout, 1,536-well)
T2 sequence (P30838 1-453): T1 sequence (P30838 1-453)

[1] = Table S5, biochemical curve class
[2] = Table S4, biochemical curve class

| SMILES | AC50 (OE19 (3A1)) [nM] | Cell_Efficacy (OE19 (3A1); Table S5, OE19 cells) | Cell_CC-v2 (OE19 (3A1); Table S5, cellular curve class) | AC50 (Human ALDH3A1) [nM] | Efficacy (Human ALDH3A1; Table S5, biochemical) | CC-v2 (Human ALDH3A1; [1]) | Cell_Efficacy (OE19 (3A1); Table S4, OE19 cells) | Cell_CC-v2 (OE19 (3A1); Table S4, cellular curve class) | Efficacy (Human ALDH3A1; Table S4, biochemical) | CC-v2 (Human ALDH3A1; [2]) | activity in the biochemical assay (Human ALDH3A1; in words) | IC50 (OE19 (3A1); cellular IC50 (Aldefluor), OE19 cells) [nM] | IC50 (Human ALDH3A1; ALDH3A1 biochemical IC50) |
| --- | --- | --- | --- | --- | --- | --- | --- | --- | --- | --- | --- | --- | --- |
| Cc1cc(CNC(=O)c2csc(N3CCN(c4cccc(C(F)(F)F)c4)CC3)n2)ccc1Cl [Compound 16] | 34.2 | -81.01 | -1.1 | 7.9 | -106.26 | -1.1 |  |  |  |  |  |  |  |
| C[S+](=N)([O-])c1cccc(CNC(=O)c2csc(N3CCN(c4cccc(C(F)(F)F)c4)CC3)n2)c1 (stereo not shown) [NCGC01407817-01] | 31.6 | -111.10 | -1.1 | 8910 | -57.06 | -1.2 |  |  |  |  |  |  |  |
| O=C(NCc1cccc(C(=O)N2CCCCC2)c1)c1csc(N2CCN(c3cccc(C(F)(F)F)c3)CC2)n1 [NCGC01407977-01] | 50100 | -33.22 | 5 |  | -16.69 | 4 |  |  |  |  |  |  |  |
| COc1cc(CNC(=O)c2csc(N3CCN(c4cccc(C(F)(F)F)c4)CC3)n2)ccc1F [NCGC01396486-01] |  | 0.00 | 4 | 15.9 | -100.89 | -1.1 |  |  |  |  |  |  |  |
| Cc1cccc(CNC(=O)c2csc(N3CCN(c4cccc(O)c4)CC3)n2)c1 [NCGC01211119-01] | 15700 |  |  | 2570 |  |  | -77.14 | -1.2 | -61.43 | -1.2 |  |  |  |
| Cc1cccc(CNC(=O)c2csc(N3CCN(c4cccc(OC(F)(F)F)c4)CC3)n2)c1 [NCGC01219289-01] | 990 |  |  | 730 |  |  | -93.51 | -1.1 | -97.63 | -1.1 |  |  |  |
| CC1(C)Oc2ccc(CNC(=O)c3csc(N4CCN(c5cccc(C(F)(F)F)c5)CC4)n3)cc2O1 [NCGC01397390-01] | 1920 | -76.04 | -1.1 | 25.1 | -96.99 | -1.1 |  |  |  |  |  |  |  |
| C[S+](=O)([O-])c1cccc(CNC(=O)c2csc(N3CCN(c4cccc(C(F)(F)F)c4)CC3)n2)c1 [NCGC01407971-01] | 251 | -83.43 | -1.1 | 891 | -53.81 | -1.2 |  |  |  |  |  |  |  |
| Cc1cccc(CNC(=O)c2csc(N3CCN(c4ccc(OCCF)cc4)CC3)n2)c1 [NCGC01211173-01] | 1400 |  |  | 3240 |  |  | -87.33 | -1.1 | -45.43 | -1.2 |  |  |  |
| Cc1cccc(CNC(=O)c2csc(N3CCN(c4ccc(C(F)(F)F)cc4)CC3)n2)c1 [Compound 7] | 880 |  |  | 320 |  |  | -93.28 | -1.1 | -97.93 | -1.1 |  |  |  |
| Cc1cccc(CNC(=O)c2csc(N3CCN(c4ccc(C#N)cc4)CC3)n2)c1 [NCGC01211190-01] | 3510 |  |  | 1450 |  |  | -84.69 | -1.1 | -61.92 | -1.2 |  |  |  |
| Cc1cccc(CNC(=O)c2csc(N3CCN(c4ccc(C)c(C)c4)CC3)n2)c1 [NCGC01211295-01] | 2210 |  |  | 1020 |  |  | -85.13 | -1.3 | -92.09 | -1.1 |  |  |  |
| Cc1cccc(CNC(=O)c2csc(N3CCN(c4ccc(C5(C#N)CC5)cc4)CC3)n2)c1 [NCGC01210256-01] | 15700 |  |  | 14500 |  |  | -71.00 | -1.4 | -66.81 | -1.2 |  |  |  |
| COc1ccc(F)c(N2CCN(c3nc(C(=O)NCc4cccc(C)c4)cs3)CC2)c1 [NCGC01211189-01] | 7850 |  |  | 910 |  |  | -96.01 | -1.1 | -85.97 | -1.1 |  |  |  |
| Cc1cccc(CNC(=O)c2csc(N3CCN(c4ccc(Cl)cn4)CC3)n2)c1 [Compound 11] | 3510 |  |  | 460 |  |  | -68.27 | -1.2 | -99.36 | -1.1 | good activity |  |  |
| Cc1cccc(CNC(=O)c2csc(N3CCN(c4cccc(C(F)(F)F)c4)CC3)n2)c1 [Compound 5] | 3130 |  |  | 230 |  |  | -101.21 | -2.2 | -100.07 | -1.1 |  | 3130 | 230 nM and 229 nM |
